Test [1] has as its target T1, Carbonic anhydrase 1 (Homo sapiens, UniProt P00915). Put plainly: Enzyme Activity Assay.
The target of test [2] is T2, Carbonic anhydrase 2 (Homo sapiens, UniProt P00918). In words: Enzyme Activity Assay.
In test [3] the target is T1, Carbonic anhydrase 1. Put plainly: Esterase Activity Assay. As to conditions: pH 7.4. The method, then:
(§1) The enzymatic reaction, in a total volume of 3 mL, contained 1.4 mL of 0.05 M tris-SO4 buffer (pH 7.4), 1 mL of 3 mM 4-nitrophenylacetate, 0.5 mL H2O and 0.1 mL enzyme solution. A reference measurement was obtained by preparing the same cuvette without any enzyme solution.

In test [4] the target is T2, Carbonic anhydrase 2. Put plainly: Esterase Activity Assay. Particulars: pH 7.4. The method, then: as §1
Test [5] concerns the target T1, Carbonic anhydrase 1. Put plainly: Hydratase Activity Assay.
Test [6] has as its target T2, Carbonic anhydrase 2. Put plainly: Hydratase Activity Assay.

Drawing on BindingDB's records for doi:10.3109/14756366.2010.491795 (Dumlupinar University, 2011), this text covers Ki and IC50 for eleven compounds.

T1 sequence (P00915 whole entry): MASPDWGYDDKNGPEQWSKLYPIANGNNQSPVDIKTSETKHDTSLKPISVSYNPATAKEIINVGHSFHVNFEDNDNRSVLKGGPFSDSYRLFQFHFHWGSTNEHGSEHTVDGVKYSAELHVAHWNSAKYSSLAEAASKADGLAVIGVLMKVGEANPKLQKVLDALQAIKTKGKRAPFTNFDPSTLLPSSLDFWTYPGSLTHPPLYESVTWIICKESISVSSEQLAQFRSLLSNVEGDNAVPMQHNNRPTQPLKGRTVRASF

A word on the Ki: it is a measure of affinity in units of concentration, obtained from inhibition or displacement. Lower therefore signals a stronger hold on the target. For orientation: IC50 means the midpoint of a concentration-inhibition curve. A higher IC50 goes with a need for much substance. As for `CC(=O)/C(=N\Nc1ccc(-n2nc(C(=O)Nc3nnc(S(N)(=O)=O)s3)c(C(=O)c3ccccc3)c2-c2ccccc2)cc1)C(=O)OC(C)(C)C` [tert-Butyl 2-(2-(4-(4-benzoyl-5-phenyl-3-(5-sulphamoyl-1,3,4-thiadiazol-2-ylcarbamoyl)-1H-pyrazol-1-yl)phenyl)hydrazono)-3-oxobutanoate (17)], the Ki in test [1] was found to be 310 nM; in test [2], 108 nM. In addition, the IC50 in test [3] was 330 nM; in test [4] it was 80 nM; in test [5] it was 780 nM; in test [6] it was 200 nM.
On to `CC(=O)Cn1c(C)cc2cc(-n3nc(C(=O)Nc4nnc(S(N)(=O)=O)s4)c(C(=O)c4ccccc4)c3-c3ccccc3)ccc21` [4-Benzoyl-1-(2-methyl-1-(2-oxopropyl)-1H-indol-5-yl)-5-phenyl-N-(5-sulphamoyl-1,3,4-thiadiazol-2-yl)-1H-pyrazole-3-carboxamide (18)], for which the results for the Ki in test [1] and in test [2] were 6670 nM and 3920 nM, respectively. In addition, the IC50 was found to be 2400 nM in test [3], 1740 nM in test [4], 750 nM in test [5] and 600 nM in test [6].
Consider `CC(=O)/C(=N\Nc1ccc(-n2nc(C(=O)Nc3nnc(S(N)(=O)=O)s3)c(C(=O)c3ccccc3)c2-c2ccccc2)cc1)C(=O)c1ccccc1` [4-Benzoyl-1-(4-(2-(1,3-dioxo-1-phenylbutan-2-ylidene)hydrazinyl)phenyl)-5-phenyl-N-(5-sulphamoyl-1,3,4-thiadiazol-2-yl)-1H-pyrazole-3-carboxamide (12)], for which the Ki amounted to 1530 nM in test [1] and 244 nM in test [2]. Besides, the IC50 in test [3] came out at 1000 nM; in test [4], 370 nM; in test [5] it was 164 nM; in test [6] it was 160 nM.
For the compound `NS(=O)(=O)c1nnc(NC(=O)c2nn(-c3ccc(I)cc3)c(-c3ccccc3)c2C(=O)c2ccccc2)s1` [4-Benzoyl-1-(4-iodophenyl)-5-phenyl-N-(5-sulphamoyl-1,3,4-thiadiazol-2-yl)-1H-pyrazole-3-carboxamide (10)], the inhibition constant (Ki) came out at 360 nM in test [1] and 56 nM in test [2]. The IC50 in test [3] was 350 nM; in test [4], 50 nM; in test [5], 270 nM; in test [6] it was 180 nM.
In the case of `CCOC(=O)/C(=N/Nc1ccc(-n2nc(C(=O)Nc3nnc(S(N)(=O)=O)s3)c(C(=O)c3ccccc3)c2-c2ccccc2)cc1)C(C)=O` [Ethyl 2-(2-(4-(4-benzoyl-5-phenyl-3-(5-sulphamoyl-1,3,4-thiadiazol-2-ylcarbamoyl)-1H-pyrazol-1-yl)phenyl)hydrazono)-3-oxobutanoate (15)], the Ki in test [1] turned out to be 1190 nM; in test [2] it was 125 nM. In addition, the IC50 in test [3] is 910 nM; in test [4] it was 140 nM; in test [5], 1210 nM; in test [6] it was 800 nM.
Consider `NS(=O)(=O)c1nnc(NC(=O)c2nn(-c3ccc(/N=N/c4c(O)ccc5ccccc45)cc3)c(-c3ccccc3)c2C(=O)c2ccccc2)s1` [4-Benzoyl-1-(4-((2-hydroxynaphthalen-1-yl)diazenyl)phenyl)-5-phenyl-N-(5-sulphamoyl-1,3,4-thiadiazol-2-yl)-1H-pyrazole-3-carboxamide (8)], for which the Ki stood at 5830 nM in test [1] and 848 nM in test [2]. The IC50 in test [3] was 4750 nM; in test [4] it was 2100 nM; in test [5], 2860 nM; in test [6] it was 2400 nM.
Take `CCOC(=O)C(=NNc1ccc(-n2nc(C(=O)Nc3nnc(S(N)(=O)=O)s3)c(C(=O)c3ccccc3)c2-c2ccccc2)cc1)C(=O)OCC` [Diethyl 2-(2-(4-(4-benzoyl-5-phenyl-3-(5-sulphamoyl-1,3,4-thiadiazol-2-ylcarbamoyl)-1H-pyrazol-1-yl)phenyl)hydrazono)malonate (16)]: the Ki in test [1] was found to be 300 nM; in test [2], 65 nM. In addition, the IC50 in test [3] came out at 380 nM; in test [4], 70 nM; in test [5] it was 850 nM; in test [6], 1000 nM.
Regarding `CC(=O)C(=NNc1ccc(-n2nc(C(=O)Nc3nnc(S(N)(=O)=O)s3)c(C(=O)c3ccccc3)c2-c2ccccc2)cc1)C(C)=O` [4-Benzoyl-1-(4-(2-(2,4-dioxopentan-3-ylidene)hydrazinyl)phenyl)-5-phenyl-N-(5-sulphamoyl-1,3,4-thiadiazol-2-yl)-1H-pyrazole-3-carboxamide (11)], the results for the Ki in test [1] and in test [2] were 572 nM and 103 nM, respectively. Further, the IC50 came out at 570 nM in test [3], 130 nM in test [4], 330 nM in test [5] and 80 nM in test [6].
With `CCOC(=O)/C(=N/Nc1ccc(-n2nc(C(=O)Nc3nnc(S(N)(=O)=O)s3)c(C(=O)c3ccccc3)c2-c2ccccc2)cc1)C(=O)c1ccccc1` [Ethyl 2-(2-(4-(4-benzoyl-5-phenyl-3-(5-sulphamoyl-1,3,4-thiadiazol-2-ylcarbamoyl)-1H-pyrazol-1-yl)phenyl)hydrazono)-3-oxo-3-phenylpropanoate (14)], the Ki in test [1] was determined as 1530 nM; in test [2], 498 nM. Besides, the IC50 in test [3] came out at 800 nM; in test [4], 850 nM; in test [5] it was 1320 nM; in test [6] it was 1300 nM.
`NS(=O)(=O)c1nnc(NC(=O)c2nn(-c3ccc(/N=N/c4ccc(O)cc4)cc3)c(-c3ccccc3)c2C(=O)c2ccccc2)s1` [4-Benzoyl-1-(4-((4-hydroxyphenyl)diazenyl)phenyl)-5-phenyl-N-(5-sulphamoyl-1,3,4-thiadiazol-2-yl)-1H-pyrazole-3-carboxamide (9)]: the Ki in test [1] worked out at 95 nM; in test [2], 18 nM. Besides, the IC50 is 230 nM in test [3], 30 nM in test [4], 200 nM in test [5] and 800 nM in test [6].
Turning to `NS(=O)(=O)c1nnc(NC(=O)c2nn(-c3ccc(NN=C(C(=O)c4ccccc4)C(=O)c4ccccc4)cc3)c(-c3ccccc3)c2C(=O)c2ccccc2)s1` [4-Benzoyl-1-(4-(2-(1,3-dioxo-1,3-diphenylpropan-2-ylidene)hydrazinyl)phenyl)-5-phenyl-N-(5-sulphamoyl-1,3,4-thiadiazol-2-yl)-1H-pyrazole-3-carboxamide (13)], the Ki in test [1] worked out at 1020 nM; in test [2] it was 3180 nM. Further, the IC50 in test [3] was determined as 4800 nM; in test [4], 1420 nM; in test [5], 700 nM; in test [6], 1000 nM.
